# According to PubChem BioAssay AID2060487 (Molecular Pharmacology Branch, DTP, NCI, 2025):
# Tested on: 997537-175-T-J1-PDC complex spheroid viability
# Test: Anticancer human tumor 997537-175-T-J1-PDC patient-derived colon adenocarcinoma cell line growth inhibition [GQUAD]
# Conditions: for IC50: curve of first compound; for viability, T/C: stronger effect = lower value
# Procedure, shortened: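 Tumor cells were grown as complex spheroids with HUVEC endothelial cells and mesenchymal stem cells as stroma. G-quadruplex stabilizers were combined with targeted agents over half-log dilutions from near the clinical Cmax, or from 10 microM.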
# [1] = second compound 0.0316 µM, first compound 0.0316 µM
# [2] = second compound 0.0316 µM, first compound 0.1 µM
# [3] = second compound 0.0316 µM, first compound 0.316 µM
# [4] = second compound 0.0316 µM, first compound 1 µM
# [5] = second compound 0.0316 µM, first compound 3.16 µM
# [6] = second compound 0.0316 µM, first compound 10 µM
# [7] = second compound 0.1 µM, first compound 0.0316 µM
# [8] = second compound 0.1 µM, first compound 0.1 µM
# [9] = second compound 0.1 µM, first compound 0.316 µM
# [10] = second compound 0.1 µM, first compound 1 µM
# [11] = second compound 0.1 µM, first compound 3.16 µM
# [12] = second compound 0.1 µM, first compound 10 µM
# [13] = second compound 0.316 µM, first compound 0.0316 µM
# [14] = second compound 0.316 µM, first compound 0.1 µM
# [15] = second compound 0.316 µM, first compound 0.316 µM
# [16] = second compound 0.316 µM, first compound 1 µM
# [17] = second compound 0.316 µM, first compound 3.16 µM
# [18] = second compound 0.316 µM, first compound 10 µM
# [19] = second compound 1 µM, first compound 0.0316 µM
# [20] = second compound 1 µM, first compound 0.1 µM
# [21] = second compound 1 µM, first compound 0.316 µM
# [22] = second compound 1 µM, first compound 1 µM
# [23] = second compound 1 µM, first compound 3.16 µM
# [24] = second compound 1 µM, first compound 10 µM
# [25] = second compound 3.16 µM, first compound 0.0316 µM
# [26] = second compound 3.16 µM, first compound 0.1 µM
# [27] = second compound 3.16 µM, first compound 0.316 µM
# [28] = second compound 3.16 µM, first compound 1 µM
# [29] = second compound 3.16 µM, first compound 3.16 µM
# [30] = second compound 3.16 µM, first compound 10 µM
# [31] = second compound 10 µM, first compound 0.0316 µM
# [32] = second compound 10 µM, first compound 0.1 µM
# [33] = second compound 10 µM, first compound 0.316 µM
# [34] = second compound 10 µM, first compound 1 µM
# [35] = second compound 10 µM, first compound 3.16 µM
# [36] = second compound 10 µM, first compound 10 µM
# 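Note: spheroids exposed to the agents for 7 days.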
# 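Throughout, for viability, T/C: 100% = DMSO vehicle control viability.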
compound,measurement,setting,value
O=C(c1cc(Cc2n[nH]c(=O)c3ccccc23)ccc1F)N1CCN(C(=O)C2CC2)CC1 + CN(C)c1ccc(Nc2c3ccc(NC(=O)CCN4CCCC4)cc3nc3cc(NC(=O)CCN4CCCC4)ccc23)cc1,IC50,second compound 0.0316 µM,> 10000 nM
same,IC50,second compound 0.1 µM,> 10000 nM
same,IC50,second compound 0.316 µM,> 10000 nM
same,IC50,second compound 1 µM,> 10000 nM
same,IC50,second compound 3.16 µM,> 10000 nM
same,IC50,second compound 10 µM,> 10000 nM
same,"viability, T/C",[1],106%
same,"viability, T/C",[2],89.7%
same,"viability, T/C",[3],91.4%
same,"viability, T/C",[4],79.1%
same,"viability, T/C",[5],98.9%
same,"viability, T/C",[6],90.6%
same,"viability, T/C",[7],92%
same,"viability, T/C",[8],99.2%
same,"viability, T/C",[9],97.2%
same,"viability, T/C",[10],74.5%
same,"viability, T/C",[11],91.4%
same,"viability, T/C",[12],88.9%
same,"viability, T/C",[13],88.3%
same,"viability, T/C",[14],78.2%
same,"viability, T/C",[15],90.4%
same,"viability, T/C",[16],72%
same,"viability, T/C",[17],97.3%
same,"viability, T/C",[18],84.3%
same,"viability, T/C",[19],85.7%
same,"viability, T/C",[20],86%
same,"viability, T/C",[21],77.6%
same,"viability, T/C",[22],85.6%
same,"viability, T/C",[23],92.4%
same,"viability, T/C",[24],85.4%
same,"viability, T/C",[25],82.8%
same,"viability, T/C",[26],105%
same,"viability, T/C",[27],88.7%
same,"viability, T/C",[28],73.9%
same,"viability, T/C",[29],85.8%
same,"viability, T/C",[30],105%
same,"viability, T/C",[31],74.9%
same,"viability, T/C",[32],97.4%
same,"viability, T/C",[33],95.2%
same,"viability, T/C",[34],93.8%
same,"viability, T/C",[35],102%
same,"viability, T/C",[36],96%
O=C(NO)c1cnc(N2CCN(S(=O)(=O)c3ccc4ccccc4c3)CC2)nc1 + Cc1[nH]c2ccc(F)cc2c1-c1nc2c3cccnc3c3ncccc3c2[nH]1,IC50,second compound 0.0316 µM,89.2 nM
same,IC50,second compound 0.1 µM,134 nM
same,IC50,second compound 0.316 µM,91.5 nM
same,IC50,second compound 1 µM,87.8 nM
same,IC50,second compound 3.16 µM,43 nM
same,IC50,second compound 10 µM,< 31.6 nM
same,"viability, T/C",[1],93.7%
same,"viability, T/C",[2],45.1%
same,"viability, T/C",[3],19.4%
same,"viability, T/C",[4],35.4%
same,"viability, T/C",[5],39.2%
same,"viability, T/C",[6],21.7%
same,"viability, T/C",[7],73.6%
same,"viability, T/C",[8],56.2%
same,"viability, T/C",[9],31.2%
same,"viability, T/C",[10],32.7%
same,"viability, T/C",[11],20.9%
same,"viability, T/C",[12],42.4%
same,"viability, T/C",[13],78.8%
same,"viability, T/C",[14],43.4%
same,"viability, T/C",[15],52.3%
same,"viability, T/C",[16],31.8%
same,"viability, T/C",[17],42.2%
same,"viability, T/C",[18],34.8%
same,"viability, T/C",[19],74.4%
same,"viability, T/C",[20],44.5%
same,"viability, T/C",[21],37.6%
same,"viability, T/C",[22],29.4%
same,"viability, T/C",[23],23.6%
same,"viability, T/C",[24],26.2%
same,"viability, T/C",[25],55.9%
same,"viability, T/C",[26],33.5%
same,"viability, T/C",[27],30.5%
same,"viability, T/C",[28],24.8%
same,"viability, T/C",[29],25.6%
same,"viability, T/C",[30],19.4%
same,"viability, T/C",[31],45.1%
same,"viability, T/C",[32],16.1%
same,"viability, T/C",[33],10.4%
same,"viability, T/C",[34],19.8%
same,"viability, T/C",[35],16.6%
same,"viability, T/C",[36],18%
Cc1[nH]c2ccccc2c1CCNCc1ccc(/C=C/C(=O)NO)cc1 + CN(C)c1ccc(Nc2c3ccc(NC(=O)CCN4CCCC4)cc3nc3cc(NC(=O)CCN4CCCC4)ccc23)cc1,IC50,second compound 0.0316 µM,301 nM
same,IC50,second compound 0.1 µM,253 nM
same,IC50,second compound 0.316 µM,252 nM
same,IC50,second compound 1 µM,199 nM
same,IC50,second compound 3.16 µM,> 316 nM
same,IC50,second compound 10 µM,237 nM
same,"viability, T/C","second compound 0.0316 µM, first compound 0.000999 µM",103%
same,"viability, T/C","second compound 0.0316 µM, first compound 0.00316 µM",74.8%
same,"viability, T/C","second compound 0.0316 µM, first compound 0.00999 µM",85%
same,"viability, T/C",[1],102%
same,"viability, T/C","second compound 0.0316 µM, first compound 0.0999 µM",77.2%
same,"viability, T/C",[3],48.8%
same,"viability, T/C","second compound 0.1 µM, first compound 0.000999 µM",97.8%
same,"viability, T/C","second compound 0.1 µM, first compound 0.00316 µM",86%
same,"viability, T/C","second compound 0.1 µM, first compound 0.00999 µM",79.2%
same,"viability, T/C",[7],94%
same,"viability, T/C","second compound 0.1 µM, first compound 0.0999 µM",78.8%
same,"viability, T/C",[9],42.4%
same,"viability, T/C","second compound 0.316 µM, first compound 0.000999 µM",91.5%
same,"viability, T/C","second compound 0.316 µM, first compound 0.00316 µM",81.8%
same,"viability, T/C","second compound 0.316 µM, first compound 0.00999 µM",88%
same,"viability, T/C",[13],80.9%
same,"viability, T/C","second compound 0.316 µM, first compound 0.0999 µM",93.3%
same,"viability, T/C",[15],41%
same,"viability, T/C","second compound 1 µM, first compound 0.000999 µM",88.5%
same,"viability, T/C","second compound 1 µM, first compound 0.00316 µM",77.1%
same,"viability, T/C","second compound 1 µM, first compound 0.00999 µM",87.5%
same,"viability, T/C",[19],80.8%
same,"viability, T/C","second compound 1 µM, first compound 0.0999 µM",96.1%
same,"viability, T/C",[21],26%
same,"viability, T/C","second compound 3.16 µM, first compound 0.000999 µM",89.5%
same,"viability, T/C","second compound 3.16 µM, first compound 0.00316 µM",74.9%
same,"viability, T/C","second compound 3.16 µM, first compound 0.00999 µM",87.6%
same,"viability, T/C",[25],68%
same,"viability, T/C","second compound 3.16 µM, first compound 0.0999 µM",91.6%
same,"viability, T/C",[27],55%
same,"viability, T/C","second compound 10 µM, first compound 0.000999 µM",82.3%
same,"viability, T/C","second compound 10 µM, first compound 0.00316 µM",56.7%
same,"viability, T/C","second compound 10 µM, first compound 0.00999 µM",96.1%
same,"viability, T/C",[31],81.1%
same,"viability, T/C","second compound 10 µM, first compound 0.0999 µM",98.8%
same,"viability, T/C",[33],39%
